Measured values as given in patent US8487137B2, “Photochemical crosslinkers for polymer coatings and substrate tie-layer” (Innovative Surface Technologies, LLC, priority 2005, dated 2013).

How the values were obtained:
[1] = Solubility of crosslinker in common solvents and water; assay type: physicochemical; settings: chloroform, methylene chloride, acetone, ethyl acetate, isopropanol, etc.
Text: The peaks at d 7.78 ppm (m, 12H), 7.46 ppm (m, 9H), 6.98 ppm (m, 6H) were the typical signals from 4-substituted benzophenone. The peak at d 4.35 ppm (m, 6H) was assigned to the protons of methylene connected to phenoxy group. The peak at d 4.13 ppm (m, 9H) was a combination of 6 protons of 3 methylene groups connected to nitrogen atom and 3 protons from 3 methine groups. The peak at d 3.00 ppm (s, 3H) corresponded to hydroxyl groups.
The peaks at 7.49˜7.79 ppm (m, 18H) were the typical signals from 4-substituted benzophenone. The peak at 4.66 ppm (s, 4H) was assigned to the protons of methylene connected to benzophenone group. The peak at 3.70 ppm (m, 16H) corresponded to ethylene groups.
The peaks at 7.26˜7.79 ppm (m, 18H) were the typical signals from 4-substituted benzophenone. The peak at 4.64 ppm (s, 4H) was assigned to the protons of methylene connected to benzophenone group. The peak at 3.66 ppm (m, 24H) corresponded to ethylene groups.

[2] = Static contact angle with water on coated PVC coverslips (goniometer); assay type: physicochemical
Protocol: A coating solution was made up from the crude glycol linker product isolated in Example 3 (0.5 mg/ml glycol in isopropanol with 50 mg/ml polyvinylpyrrolidone (Kollidon K30, BASF, N.J.)). 100 μl of the coating solution was applied to PVC coverslips (Fisher Scientific, Pittsburgh, Pa.) and allowed to dry overnight. All pieces were illuminated for a set time in a uv crosslinker (UVP CL-1000, Upland, Calif., 254 nm light, 120,000 μJ/cm^2) from 0 to 10 minutes. Pieces were then rinsed for 30 minutes in deionized water with gentle agitation. The static contact angle with water was taken on a goniometer (MicroVu 400, Santa Ana, Calif.), three 3 μl drops of water were measured, three times apiece. Contact angles are shown below.
A coating solution of purified triazine crosslinker isolated in Example 1 was made by adding 44 mg of crosslinker to 1 ml of acetone, diluted with 19 ml of isopropanol, then adding 1000 mg of poly(vinylpyrrolidone) (PVP) (Kollidon K30, BASF, N.J.). The resulting solution was thoroughly mixed on an orbital shaker for four hours. 18 samples were prepared by adding 100, 200, or 500 μl of coating solution onto PVC Coverslips (Fisher Scientific, Pittsburgh, Pa.) (n=6 for each condition), then air drying. The sample pieces were illuminated for five minutes in a uv chamber (UVP CL-1000, Upland, Calif., 254 nm light, 120,000 μJ/cm^2), then rinsed for four hours in deionized water with gentle agitation. 4 pieces of each variable were then stained with Congo red dye to determine the presence of PVP. For each coating condition, two of the four stained pieces were then rubbed with a wet glove to determine durability of the coating to simple rubbing. The remaining two unstained sample pieces for each coating condition were then assessed for static contact angle by threefold measurement of three 3 μl drops of water on a goniometer (MicroVu 400, Santa Ana, Calif.).

SMILES: O=C(c1ccccc1)c1ccc(OCC(O)Cn2c(=O)n(CC(O)COc3ccc(C(=O)c4ccccc4)cc3)c(=O)n(CC(O)COc3ccc(C(=O)c4ccccc4)cc3)c2=O)cc1 (stereo not shown) [Example 1]
- solubility in most common solvents [1]: soluble in most common solvents
- Contact angle (rinse only) ([2]; triazine crosslinker/PVP K30, Coating 100 ml): 35.3 ± 3.4
- Contact angle (rinse only) ([2]; triazine crosslinker/PVP K30, Coating 200 ml): 38.7 ± 2.6
- Contact angle (rinse only) ([2]; triazine crosslinker/PVP K30, Coating 500 ml): 29.2 ± 2.2
